Results from the supplement of paper PMC10307832.

Columns and labels:
Assay in all cases: relative viability (nuclei count vs DMSO), 5 days (fraction); higher = more cells survive
H3255 = test system: H3255
In short: (§1)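 Relative viability divides the nuclei count in treated wells by that in vehicle wells. Lung cancer cell lines were seeded in 1536-well plates, dosed by pin tool the next day, and fixed and stained after 5 days in one step with final 0.05% Triton X-100, 1% formaldehyde and 1 ug/ml Hoechst. Dosing was a single drug or a fixed anchor-drug dose plus five library-drug doses (not always all listed) in √10 steps, and values are medians of duplicate plates imaged at 4×.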

SK-LU-1 = test system: SK-LU-1
In short: as §1

NCI-H358 = test system: NCI-H358
In short: as §1

NCI-H2405 = test system: NCI-H2405
In short: as §1

NCI-H1648 = test system: NCI-H1648
In short: as §1

BEN = test system: BEN
In short: as §1

NCI-H1650 = test system: NCI-H1650
In short: as §1

UMC-11 = test system: UMC-11
In short: as §1

A-427 = test system: A-427
In short: as §1

NCI-H1666 = test system: NCI-H1666
In short: as §1

NCI-H727 = test system: NCI-H727
In short: as §1

NCI-H2126 = test system: NCI-H2126
In short: as §1

Oc1nc(-c2ccc(C(F)(F)F)cc2)nc2c1CSCC2 [XAV939] + Nc1ncn([C@H]2C[C@H](O)[C@@H](CO)O2)c(=O)n1 [Decitabine] (partner 2 µM)
relative viability (H3255; first compound 0.08 µM): 0.637 | relative viability (H3255; first compound 0.253 µM): 0.56 | relative viability (H3255; first compound 0.8 µM): 0.576 | relative viability (H3255; first compound 2.53 µM): 0.386 | relative viability (SK-LU-1; first compound 0.08 µM): 0.665 | relative viability (SK-LU-1; first compound 0.253 µM): 0.523 | relative viability (SK-LU-1; first compound 0.8 µM): 0.652 | relative viability (SK-LU-1; first compound 2.53 µM): 0.688 | relative viability (NCI-H358; first compound 0.08 µM): 0.219 | relative viability (NCI-H358; first compound 0.253 µM): 0.207 | relative viability (NCI-H358; first compound 0.8 µM): 0.235 | relative viability (NCI-H358; first compound 2.53 µM): 0.215 | relative viability (NCI-H2405; first compound 0.08 µM): 0.776 | relative viability (NCI-H2405; first compound 0.253 µM): 0.721 | relative viability (NCI-H2405; first compound 0.8 µM): 0.709 | relative viability (NCI-H2405; first compound 2.53 µM): 0.689 | relative viability (NCI-H1648; first compound 0.253 µM): 0.423 | relative viability (NCI-H1648; first compound 0.8 µM): 0.386 | relative viability (NCI-H1648; first compound 2.53 µM): 0.438 | relative viability (BEN; first compound 0.08 µM): 0.73 | relative viability (BEN; first compound 0.253 µM): 0.72 | relative viability (BEN; first compound 0.8 µM): 0.763 | relative viability (BEN; first compound 2.53 µM): 0.597 | relative viability (NCI-H1650; first compound 0.08 µM): 0.407 | relative viability (NCI-H1650; first compound 0.253 µM): 0.445 | relative viability (NCI-H1650; first compound 0.8 µM): 0.361 | relative viability (NCI-H1650; first compound 2.53 µM): 0.439 | relative viability (UMC-11; first compound 0.08 µM): 0.633 | relative viability (UMC-11; first compound 0.253 µM): 0.616 | relative viability (UMC-11; first compound 0.8 µM): 0.467 | relative viability (UMC-11; first compound 2.53 µM): 0.26 | relative viability (A-427; first compound 0.08 µM): 0.627 | relative viability (A-427; first compound 0.253 µM): 0.606 | relative viability (A-427; first compound 0.8 µM): 0.527 | relative viability (A-427; first compound 2.53 µM): 0.518 | relative viability (NCI-H1666; first compound 0.08 µM): 0.747 | relative viability (NCI-H1666; first compound 0.253 µM): 0.674 | relative viability (NCI-H1666; first compound 0.8 µM): 0.678 | relative viability (NCI-H1666; first compound 2.53 µM): 0.531 | relative viability (NCI-H727; first compound 0.08 µM): 0.805 | relative viability (NCI-H727; first compound 0.8 µM): 0.934 | relative viability (NCI-H727; first compound 2.53 µM): 0.653 | relative viability (NCI-H2126; first compound 0.08 µM): 0.559 | relative viability (NCI-H2126; first compound 0.253 µM): 0.537 | relative viability (NCI-H2126; first compound 0.8 µM): 0.595 | relative viability (NCI-H2126; first compound 2.53 µM): 0.481
